Converted amounts (≈) assume the structure as drawn.
Legend:
[1] = system: Staphylococcus aureus 209-p; assay: Bactericidal test (MIC), Staphylococcus aureus 209-p; format: cell-based; settings: (1) Staphylococcus aureus 209-p
From the text: (§1) Results of bactericidal tests (MIC, r/ml) on the penicillin derivatives of this invention prepared in the above examples are shown in the following table.

[2] = system: Staphylococcus aureus 1248; assay: Bactericidal test (MIC), Staphylococcus aureus 1248; format: cell-based; settings: (2) Staphylococcus aureus 1248; read-out: MIC
From the text: as §1

Bacillus subtilis = assay: Bactericidal test (MIC), Bacillus subtilis; format: cell-based; settings: (3) Bacillus subtilis
From the text: as §1

[3] = system: Salmonella typhimurium G-20; assay: Bactericidal test (MIC), Salmonella typhimurium G-20; format: cell-based; settings: Salmonella enterica; (4) Salmonella typhimurium G-20
From the text: as §1

[4] = system: Escherichia Coli NIHJ JC-2; assay: Bactericidal test (MIC), Escherichia Coli NIHJ JC-2; format: cell-based; settings: NIHJJC2; (5) Escherichia Coli NIHJ JC-2
From the text: as §1

[5] = system: Klebsiella neumoniae ATCC10031; assay: Bactericidal test (MIC), Klebsiella neumoniae ATCC10031; format: cell-based; settings: (6) Klebsiella neumoniae ATCC10031; read-out: MIC
From the text: as §1

Enterobactor cloacae 147 = assay: Bactericidal test (MIC), Enterobactor cloacae 147; format: cell-based; settings: (7) Enterobactor cloacae 147
From the text: as §1

[6] = system: Enterobacter cloacae IF012937; assay: Bactericidal test (MIC), Enterobacter cloacae IF012937; format: cell-based; settings: (8) Enterobacter cloacae IF012937
From the text: as §1

Morganella var. G-2 = assay: Bactericidal test (MIC), Morganella var. G-2; format: cell-based; settings: VAR.G2; (9) Morganella var. G-2; read-out: MIC
From the text: as §1

Rettgerella var. Tid-21 = assay: Bactericidal test (MIC), Rettgerella var. Tid-21; format: cell-based; settings: (10) Rettgerella var. Tid-21; read-out: MIC
From the text: as §1

Serratia G-18 = assay: Bactericidal test (MIC), Serratia G-18; format: cell-based; settings: G18; (11) Serratia G-18; read-out: MIC
From the text: as §1

[7] = system: Pseudomonas aeruginosa IFO-3080; assay: Bactericidal test (MIC), Pseudomonas aeruginosa IFO-3080; format: cell-based; settings: IFO3080; (12) Pseudomonas aeruginosa IFO-3080; read-out: MIC
From the text: as §1

[8] = system: Pseudomonas aeruginosa 0-37; assay: Bactericidal test (MIC), Pseudomonas aeruginosa 0-37; format: cell-based; settings: 037; (13) Pseudomonas aeruginosa 0-37
From the text: as §1

[9] = system: Pseudomonas aeruginosa Tid-53; assay: Bactericidal test (MIC), Pseudomonas aeruginosa Tid-53; format: cell-based; settings: TID53; (14) Pseudomonas aeruginosa Tid-53
From the text: as §1

[10] = system: Pseudomonas aeruginosa GN-315; assay: Bactericidal test (MIC), Pseudomonas aeruginosa GN-315; format: cell-based; settings: GN315; (15) Pseudomonas aeruginosa GN-315
From the text: as §1

[11] = system: Pseudomonas aeruginosa 130; assay: Bactericidal test (MIC), Pseudomonas aeruginosa 130; format: cell-based; settings: (16) Pseudomonas aeruginosa 130
From the text: as §1

[12] = Acute toxicity values [(LD50), mouse]; settings: in vivo
From the text: Acute toxicity values [(LD50), mouse] of some penicillin derivatives of this invention are illustrated in the following table.

[13] = Rates of protein fixation (human serum protein); format: in vitro ADME; settings: read-out: Rate of protein fixation (converted)
From the text: Rates of protein fixation (human serum protein) of the penicillin derivatives of this invention are illustrated as follows: […]

## CC(=O)Oc1ccc2oc(=O)c(C(=O)N[C@@H](C(=O)N[C@@H]3C(=O)N4[C@@H]3SC(C)(C)[C@@H]4C(=O)O)c3ccccc3)cc2c1 [Example 9, D(-)-α-(6-Acetoxycoumarin-3-carbonamido)benzylpenicillin]
[1]
  MIC: < 0.4 µg/mL
[2]
  MIC: 3.13 µg/mL (≈ 5.4 µM)
Bacillus subtilis
  MIC: < 0.4 µg/mL
[3]
  MIC: < 0.4 µg/mL
[4]
  MIC: < 0.4 µg/mL
[5]
  MIC: < 0.4 µg/mL
Enterobactor cloacae 147
  MIC: 3.13 µg/mL (≈ 5.4 µM)
[6]
  MIC: 25 µg/mL (≈ 43.1 µM)
Morganella var. G-2
  MIC: 6.25 µg/mL (≈ 10.8 µM)
Rettgerella var. Tid-21
  MIC: 3.13 µg/mL (≈ 5.4 µM)
Serratia G-18
  MIC: 25 µg/mL (≈ 43.1 µM)
[7]
  MIC: 0.8 µg/mL (≈ 1.38 µM)
[8]
  MIC: 25 µg/mL (≈ 43.1 µM)
[9]
  MIC: 6.25 µg/mL (≈ 10.8 µM)
[10]
  MIC: 6.25 µg/mL (≈ 10.8 µM)
[11]
  MIC: < 0.4 µg/mL
[12]; Oral
  LD50: > 4000 mg/kg
[12]; ip, Intraabdominal
  LD50: 2000 mg/kg
[13]
  fraction unbound: 0.2

— patent US4303664A, “Novel penicillin derivatives containing a coumarin nucleus and medicines containing the same” (Teijin Limited, priority 1978, dated 1981)
